Source: PubChem BioAssay AID192 (DTP/NCI, 2004)
Where “and” joins values, the source holds several entries; their conditions need not be identical. Equal values may be shown once. Inconclusive results and toxic doses are left out. Rule for the calls: active = survival T/C of 150% or more; inactive = T/C below 125% in these data.

Tested on: BDF1 mice, B16 melanoma ip, median survival T/C
Assay: NCI In Vivo Anticancer Drug Screen. Data for tumor model B16 Melanoma (intraperitoneal) in B6D2F1 (BDF1) mice
Settings: endpoint: median survival time, higher = longer survival
Procedure, shortened: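 Read-out: survival or tumor size, given as treated/control ratio. Controls received vehicle only; animals bore transplantable tumors.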

[1] = dose: 100.0 mg/kg/injection, schedule: Q04DX003 (ip), vehicle: Klucel (hydroxypropylcellulose) (HPC)
[2] = dose: 25.0 mg/kg/injection, schedule: Q01DX009 (ip), vehicle: saline with Tween-80
[3] = dose: 50.0 mg/kg/injection, schedule: Q01DX009 (ip), vehicle: saline with Tween-80
[4] = dose: 100.0 mg/kg/injection, schedule: Q01DX009 (ip), vehicle: saline with Tween-80
[5] = dose: 200.0 mg/kg/injection, schedule: Q01DX009 (ip), vehicle: saline with Tween-80
[6] = dose: 100.0 mg/kg/injection, schedule: Q01DX009 (ip), vehicle: saline

Measured: T/C

COC(=O)C1C2CC3c4[nH]c5cc(OC)ccc5c4CCN3CC2CC(OC2CCCCO2)C1OC (stereo not drawn)
inactive: dose: 0.19 mg/kg/injection, schedule: Q01DX009 (ip), vehicle: Klucel (hydroxypropylcellulose) (HPC) 112 % of control | dose: 0.39 mg/kg/injection, schedule: Q01DX009 (ip), vehicle: Klucel (hydroxypropylcellulose) (HPC) 104 % of control | dose: 0.78 mg/kg/injection, schedule: Q01DX009 (ip), vehicle: Klucel (hydroxypropylcellulose) (HPC) 103 % of control | dose: 0.78 mg/kg/injection, schedule: Q04DX003 (ip), vehicle: Klucel (hydroxypropylcellulose) (HPC) 91 % of control | dose: 1.56 mg/kg/injection, schedule: Q01DX009 (ip), vehicle: Klucel (hydroxypropylcellulose) (HPC) 101 % of control | dose: 1.56 mg/kg/injection, schedule: Q04DX003 (ip), vehicle: Klucel (hydroxypropylcellulose) (HPC) 90 % of control | dose: 3.12 mg/kg/injection, schedule: Q01DX009 (ip), vehicle: Klucel (hydroxypropylcellulose) (HPC) 111 % of control | dose: 3.12 mg/kg/injection, schedule: Q04DX003 (ip), vehicle: Klucel (hydroxypropylcellulose) (HPC) 96 % of control and 122 % of control | dose: 6.25 mg/kg/injection, schedule: Q04DX003 (ip), vehicle: Klucel (hydroxypropylcellulose) (HPC) 98 % of control | dose: 12.5 mg/kg/injection, schedule: Q04DX003 (ip), vehicle: Klucel (hydroxypropylcellulose) (HPC) 95 % of control and 111 % of control | dose: 25.0 mg/kg/injection, schedule: Q04DX003 (ip), vehicle: Klucel (hydroxypropylcellulose) (HPC) 113 % of control | dose: 50.0 mg/kg/injection, schedule: Q04DX003 (ip), vehicle: Klucel (hydroxypropylcellulose) (HPC) 111 % of control | [1] 100 % of control

CC(C)[C@]12O[C@H]1[C@@H]1O[C@]13[C@]1(O[C@H]1C[C@H]1C4=C(C(=O)OC4)[C@@H](O)C[C@@]13C)[C@@H]2O
inactive: dose: 12.5 micrograms/kg/injection, schedule: Q01DX009 (ip), vehicle: saline + alcohol 112 % of control | dose: 25.0 micrograms/kg/injection, schedule: Q01DX009 (ip), vehicle: saline + alcohol 110 % of control | dose: 50.0 micrograms/kg/injection, schedule: Q01DX009 (ip), vehicle: saline + alcohol 110 % of control | dose: 63.0 micrograms/kg/injection, schedule: Q01DX009 (ip), vehicle: saline + alcohol 102 % of control | dose: 100.0 micrograms/kg/injection, schedule: Q01DX009 (ip), vehicle: saline + alcohol 122 % of control | dose: 125.0 micrograms/kg/injection, schedule: Q01DX009 (ip), vehicle: saline + alcohol 111 % of control | dose: 250.0 micrograms/kg/injection, schedule: Q01DX009 (ip), vehicle: saline + alcohol 107 % of control

CCN1C=C/C(=C/c2cc3scc(-c4ccccc4)[n+]3c3ccccc23)c2ccccc21
inactive: dose: 0.08 mg/kg/injection, schedule: Q01DX009 (ip), vehicle: saline 94 % of control | dose: 0.15 mg/kg/injection, schedule: Q01DX009 (ip), vehicle: saline 94 % of control | dose: 0.3 mg/kg/injection, schedule: Q01DX009 (ip), vehicle: saline 90 % of control | dose: 75.0 micrograms/kg/injection, schedule: Q01DX009 (ip), vehicle: Klucel (hydroxypropylcellulose) (HPC) 103 % of control | dose: 150.0 micrograms/kg/injection, schedule: Q01DX009 (ip), vehicle: Klucel (hydroxypropylcellulose) (HPC) 107 % of control | dose: 300.0 micrograms/kg/injection, schedule: Q01DX009 (ip), vehicle: Klucel (hydroxypropylcellulose) (HPC) 98 % of control | dose: 600.0 micrograms/kg/injection, schedule: Q01DX009 (ip), vehicle: Klucel (hydroxypropylcellulose) (HPC) 95 % of control

C=CCN1CCCC1=O
inactive: dose: 100.0 mg/kg/injection, schedule: Q04DX003 (ip), vehicle: saline 102 % of control | dose: 200.0 mg/kg/injection, schedule: Q04DX003 (ip), vehicle: saline 95 % of control | dose: 400.0 mg/kg/injection, schedule: Q04DX003 (ip), vehicle: saline 100 % of control

F[B-](F)(F)F
inactive: dose: 12.5 mg/kg/injection, schedule: Q01DX009 (ip), vehicle: gum acacia 104 % of control | dose: 25.0 mg/kg/injection, schedule: Q01DX009 (ip), vehicle: gum acacia 114 % of control | dose: 50.0 mg/kg/injection, schedule: Q01DX009 (ip), vehicle: gum acacia 117 % of control | dose: 100.0 mg/kg/injection, schedule: Q01DX009 (ip), vehicle: gum acacia 105 % of control | dose: 200.0 mg/kg/injection, schedule: Q01DX009 (ip), vehicle: gum acacia 107 % of control

C=C(Cl)CC1(C(=O)OCC)CCN(S(=O)(=O)c2ccc(C)cc2)c2ccccc2C1=O (stereo not drawn)
inactive: [1] 97 % of control | dose: 200.0 mg/kg/injection, schedule: Q04DX003 (ip), vehicle: Klucel (hydroxypropylcellulose) (HPC) 107 % of control | dose: 400.0 mg/kg/injection, schedule: Q04DX003 (ip), vehicle: Klucel (hydroxypropylcellulose) (HPC) 93 % of control

CC(C)CCC1(CCBr)C(=O)NC(=Nc2ccccc2)NC1=O (stereo not drawn)
inactive: [2] 86 % of control | [3] 106 % of control | [4] 96 % of control | [5] 96 % of control

CCCOCC(O)CO (stereo not drawn)
inactive: [6] 118 % of control | dose: 200.0 mg/kg/injection, schedule: Q01DX009 (ip), vehicle: saline 118 % of control | dose: 400.0 mg/kg/injection, schedule: Q01DX009 (ip), vehicle: saline 112 % of control

NN1CCCC1
inactive: dose: 25.0 mg/kg/injection, schedule: Q01DX009 (ip), vehicle: saline 110 % of control | dose: 50.0 mg/kg/injection, schedule: Q01DX009 (ip), vehicle: saline 102 % of control | [6] 94 % of control

O=C1CCC(c2ccccc2)=NN1
inactive: dose: 6.25 mg/kg/injection, schedule: Q01DX009 (ip), vehicle: saline with Tween-80 102 % of control | dose: 12.5 mg/kg/injection, schedule: Q01DX009 (ip), vehicle: saline with Tween-80 102 % of control | [2] 102 % of control | [3] 89 % of control and 94 % of control

CCCCN(CCCC)c1ccc(C(=O)O)cc1
inactive: [3] 102 % of control | [4] 94 % of control | [5] 103 % of control

CCOC(=O)Oc1c(OC)cc(C(=O)O[C@@H]2C[C@@H]3CN4CCc5c([nH]c6cc(OC)ccc56)[C@H]4C[C@@H]3[C@H](C(=O)OC)[C@H]2OC)cc1OC
inactive: dose: 0.09 mg/kg/injection, schedule: Q01DX009 (ip), vehicle: saline 98 % of control | dose: 0.19 mg/kg/injection, schedule: Q01DX009 (ip), vehicle: saline 93 % of control | dose: 0.39 mg/kg/injection, schedule: Q01DX009 (ip), vehicle: saline 124 % of control | dose: 0.78 mg/kg/injection, schedule: Q01DX009 (ip), vehicle: saline 101 % of control | dose: 1.56 mg/kg/injection, schedule: Q01DX009 (ip), vehicle: saline 112 % of control | dose: 6.25 mg/kg/injection, schedule: Q01DX009 (ip), vehicle: Klucel (hydroxypropylcellulose) (HPC) 87 % of control

CCC[CH2][Sn]([CH2]CCC)([S]C#N)[S]C#N
inactive: dose: 0.75 mg/kg/injection, schedule: Q01DX009 (ip), vehicle: saline with Tween-80 98 % of control | dose: 1.5 mg/kg/injection, schedule: Q01DX009 (ip), vehicle: saline with Tween-80 101 % of control | dose: 3.0 mg/kg/injection, schedule: Q01DX009 (ip), vehicle: saline with Tween-80 98 % of control

NC(Cc1cc(I)c(Oc2cc(I)c(O)c(I)c2)c(I)c1)C(=O)O (stereo not drawn)
inactive: dose: 1.0 mg/kg/injection, schedule: Q01DX009 (ip), vehicle: saline 93 % of control | dose: 2.0 mg/kg/injection, schedule: Q01DX009 (ip), vehicle: saline 101 % of control | dose: 4.0 mg/kg/injection, schedule: Q01DX009 (ip), vehicle: saline 92 % of control | dose: 16.0 mg/kg/injection, schedule: Q01DX009 (ip), vehicle: saline 101 % of control
